Reference: ChEMBL document CHEMBL5154749 (Eur J Med Chem, 2022)

How the values were obtained:
OVCAR-3 = experiment: Antiproliferative activity against ATM-deficient human OVCAR-3 cells assessed as reduction in cell viability incubated for 72 hrs by MTT assay; type: functional, cell-based; conditions: dose 0.001-100 µM, DDE = dose-dependent effect
[1] = target: Serine/threonine-protein kinase ATR (Homo sapiens, UniProt Q13535); experiment: Inhibition of ATR signalling in ATM-deficient human LoVo cells assessed as inhibition of Chk1 phosphorylation incubated for 1 hr followed by hydroxyurea addition measured after 4 hrs by Western blot analysis; type: cell-based; conditions: dose <= 3.0 µM, time 5.0 hrs, DDE = dose-dependent effect
Chain of Serine/threonine-protein kinase ATR (Q13535 whole entry, looked up): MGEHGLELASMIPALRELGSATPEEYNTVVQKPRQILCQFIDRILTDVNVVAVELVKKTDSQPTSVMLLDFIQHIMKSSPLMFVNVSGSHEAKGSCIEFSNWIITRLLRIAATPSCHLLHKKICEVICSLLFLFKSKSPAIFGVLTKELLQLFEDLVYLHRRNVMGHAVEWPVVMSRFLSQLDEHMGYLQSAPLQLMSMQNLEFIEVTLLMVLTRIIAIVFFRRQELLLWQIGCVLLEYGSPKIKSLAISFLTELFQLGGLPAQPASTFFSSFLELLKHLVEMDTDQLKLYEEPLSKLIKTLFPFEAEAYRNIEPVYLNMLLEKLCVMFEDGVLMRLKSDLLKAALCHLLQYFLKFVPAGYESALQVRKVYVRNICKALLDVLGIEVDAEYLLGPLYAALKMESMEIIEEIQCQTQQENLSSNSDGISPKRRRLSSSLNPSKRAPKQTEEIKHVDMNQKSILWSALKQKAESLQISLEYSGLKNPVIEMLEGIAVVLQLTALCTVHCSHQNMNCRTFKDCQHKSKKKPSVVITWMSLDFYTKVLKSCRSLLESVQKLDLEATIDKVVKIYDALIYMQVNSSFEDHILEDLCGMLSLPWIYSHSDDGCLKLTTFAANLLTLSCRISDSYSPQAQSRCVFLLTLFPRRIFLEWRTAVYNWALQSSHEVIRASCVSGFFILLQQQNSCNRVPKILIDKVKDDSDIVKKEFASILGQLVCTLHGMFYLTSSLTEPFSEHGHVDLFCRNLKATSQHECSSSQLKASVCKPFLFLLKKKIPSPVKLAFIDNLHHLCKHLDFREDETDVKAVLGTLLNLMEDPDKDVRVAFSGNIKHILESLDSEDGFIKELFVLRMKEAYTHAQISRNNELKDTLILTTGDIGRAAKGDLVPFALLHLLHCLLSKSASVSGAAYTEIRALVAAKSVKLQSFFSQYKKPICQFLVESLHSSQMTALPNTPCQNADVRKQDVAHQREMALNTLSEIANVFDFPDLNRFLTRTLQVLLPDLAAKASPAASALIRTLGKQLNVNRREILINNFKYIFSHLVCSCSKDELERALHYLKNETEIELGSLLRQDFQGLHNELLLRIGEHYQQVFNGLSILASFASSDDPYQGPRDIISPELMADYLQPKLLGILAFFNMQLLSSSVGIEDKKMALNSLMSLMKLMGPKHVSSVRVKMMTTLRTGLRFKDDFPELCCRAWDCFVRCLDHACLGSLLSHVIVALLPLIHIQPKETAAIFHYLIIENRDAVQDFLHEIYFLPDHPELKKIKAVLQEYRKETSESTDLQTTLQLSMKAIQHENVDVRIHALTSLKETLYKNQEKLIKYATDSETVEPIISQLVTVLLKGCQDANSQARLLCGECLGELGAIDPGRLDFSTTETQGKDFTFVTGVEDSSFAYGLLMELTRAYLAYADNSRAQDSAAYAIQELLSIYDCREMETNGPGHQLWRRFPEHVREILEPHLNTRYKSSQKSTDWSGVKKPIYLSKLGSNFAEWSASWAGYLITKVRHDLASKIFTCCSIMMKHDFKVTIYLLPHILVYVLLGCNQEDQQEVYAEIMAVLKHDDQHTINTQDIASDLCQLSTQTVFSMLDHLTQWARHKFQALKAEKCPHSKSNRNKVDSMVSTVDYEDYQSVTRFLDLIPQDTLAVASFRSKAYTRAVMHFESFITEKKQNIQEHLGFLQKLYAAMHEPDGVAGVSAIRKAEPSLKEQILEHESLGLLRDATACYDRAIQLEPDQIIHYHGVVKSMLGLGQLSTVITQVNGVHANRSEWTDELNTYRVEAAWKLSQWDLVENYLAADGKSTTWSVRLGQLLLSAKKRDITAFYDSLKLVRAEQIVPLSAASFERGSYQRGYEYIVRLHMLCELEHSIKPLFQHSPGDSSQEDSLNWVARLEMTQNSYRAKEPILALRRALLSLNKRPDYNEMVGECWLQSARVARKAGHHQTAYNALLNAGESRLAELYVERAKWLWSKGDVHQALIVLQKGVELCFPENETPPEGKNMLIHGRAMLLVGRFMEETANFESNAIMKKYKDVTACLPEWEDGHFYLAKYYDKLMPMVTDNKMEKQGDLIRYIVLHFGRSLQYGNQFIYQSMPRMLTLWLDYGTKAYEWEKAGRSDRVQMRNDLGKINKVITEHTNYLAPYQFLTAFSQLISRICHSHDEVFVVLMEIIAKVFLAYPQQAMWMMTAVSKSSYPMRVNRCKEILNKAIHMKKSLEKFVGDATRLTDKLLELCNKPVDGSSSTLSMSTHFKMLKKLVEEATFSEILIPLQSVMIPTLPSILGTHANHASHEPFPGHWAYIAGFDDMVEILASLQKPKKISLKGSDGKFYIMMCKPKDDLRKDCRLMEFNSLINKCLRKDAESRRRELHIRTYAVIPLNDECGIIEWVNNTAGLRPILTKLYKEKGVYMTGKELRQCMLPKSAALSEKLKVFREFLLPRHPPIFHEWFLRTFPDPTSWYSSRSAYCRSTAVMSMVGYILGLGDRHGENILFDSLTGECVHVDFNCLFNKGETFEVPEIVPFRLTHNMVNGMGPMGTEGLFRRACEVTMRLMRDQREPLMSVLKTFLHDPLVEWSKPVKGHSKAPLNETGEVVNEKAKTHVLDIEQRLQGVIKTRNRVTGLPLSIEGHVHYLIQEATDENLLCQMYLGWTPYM

LoVo [2] = experiment: Inhibition of colony formation in human LoVo cells assessed as inhibition of cell proliferation incubated for 24 hrs followed by culture medium replenishment with drug-free medium for every 72 hrs and measured after 14 days by crystal violet staining method; type: functional, cell-based; conditions: dose 0.03-3 µM, DDE = dose-dependent effect
LoVo [3] = experiment: Antimigratory activity in human LoVo cells assessed as suppression of cell migration measured up to 48 hrs by wound healing assay; type: functional, cell-based; conditions: dose <= 1.0 µM, DDE = dose-dependent effect
LoVo [4] = experiment: Induction of apoptosis in human LoVo cells deficient in ATM assessed as necrotic cells at 0.3 uM measured after 24 hrs by Annexin V-FITC/Propidium iodide staining based flow cytometry analysis (reference value: 0.84%); type: functional
LoVo [5] = experiment: Induction of apoptosis in human LoVo cells deficient in ATM assessed as late apoptotic cells at 0.3 uM measured after 24 hrs by Annexin V-FITC/Propidium iodide staining based flow cytometry analysis (reference value: 3.32%); type: functional
LoVo [6] = experiment: Induction of apoptosis in human LoVo cells deficient in ATM assessed as viable cells at 1 uM measured after 24 hrs by Annexin V-FITC/Propidium iodide staining based flow cytometry analysis (reference value: 91.64%); type: functional; conditions: read-out: Activity
HT-29 [7] = experiment: Induction of apoptosis in human HT-29 cells assessed as early apoptotic cells at 0.3 uM measured after 48 hrs by Annexin V-FITC/Propidium iodide staining based flow cytometry analysis (reference value: 1.55%); type: functional
HT-29 [8] = experiment: Induction of apoptosis in human HT-29 cells assessed as late apoptotic cells at 0.3 uM measured after 48 hrs by Annexin V-FITC/Propidium iodide staining based FACS cytometry analysis (reference value: 0.71%); type: functional
HT-29 [9] = experiment: Induction of apoptosis in human HT-29 cells assessed as early apoptotic cells at 1 uM measured after 48 hrs by Annexin V-FITC/Propidium iodide staining based flow cytometry analysis (reference value: 1.55%); type: functional
HT-29 [10] = experiment: Induction of apoptosis in human HT-29 cells assessed as necrotic cells at 1 uM measured after 48 hrs by Annexin V-FITC/Propidium iodide staining based flow cytometry analysis (reference value: 0.73%); type: functional
HT-29 [11] = experiment: Induction of apoptosis in human HT-29 cells assessed as necrotic cells at 3 uM measured after 48 hrs by Annexin V-FITC/Propidium iodide staining based flow cytometry analysis (reference value: 0.73%); type: functional
HT-29 [12] = experiment: Induction of apoptosis in human HT-29 cells assessed as necrotic cells at 1 uM measured after 48 hrs in presence of AZD1390 by Annexin V-FITC/Propidium iodide staining based flow cytometry analysis (reference value: 0.23%); type: functional
HT-29 [13] = experiment: Induction of apoptosis in human HT-29 cells assessed as late apoptotic cells at 1 uM measured after 48 hrs in presence of AZD1390 by Annexin V-FITC/Propidium iodide staining based flow cytometry analysis (reference value: 0.63%); type: functional
HT-29 [14] = experiment: Induction of apoptosis in human HT-29 cells assessed as necrotic cells at 3 uM measured after 48 hrs in presence of AZD1390 by Annexin V-FITC/Propidium iodide staining based flow cytometry analysis (reference value: 0.23%); type: functional
[15] = Half life in Sprague-Dawley rat at 10 mg/kg, po measured at 0.083 to 24 hrs by LC-MS/MS method; type: ADME, organism-based; conditions: in vivo, time 0.083-24 hrs
[16] = Tmax in Sprague-Dawley rat at 5 mg/kg, iv measured at 0.083 to 24 hrs by LC-MS/MS method; type: ADME, organism-based; conditions: in vivo, time 0.083-24 hrs
LoVo [17] = experiment: Antitumor activity against human LoVo cells xenografted in NOD/SCID mouse assessed as tumor growth inhibition at 100 mg/kg, po BID for 30 days measured every 2 to 3 days; type: functional; conditions: 720 h, time 30 day, read-out: TGI
[18] = Toxicity in NOD/SCID mouse xenografted with human LoVo cells assessed as damage in liver at 50 to 100 mg/kg, po administered bid for 30 days measured after 2 hrs post last dose by H and E staining method; type: organism-based; conditions: in vivo, 720 h, dose 50-100 mg/kg, time 30 day
[19] = Toxicity in NOD/SCID mouse xenografted with human LoVo cells assessed as damage in spleen at 50 to 100 mg/kg, po administered bid for 30 days measured after 2 hrs post last dose by H and E staining method; type: organism-based; conditions: in vivo, 720 h, dose 50-100 mg/kg, time 30 day

inhibition [1]: Dde
half-life [15]: 68.4 min
Tmax [16]: 4.8 min
SMILES: C[C@@H]1COCCN1c1nc(-c2cccc3[nH]ccc23)nc2ccc(-c3ccnn3C)cc12
Activity (OVCAR-3): Dde
inhibition (LoVo [2]): Dde
Activity (LoVo [3]): Dde
Activity (LoVo [4]): 2.71%
Activity (LoVo [5]): 17.38%
viability at 1 µM (LoVo [6]): 47.8%
Activity (HT-29 [7]): 1.47%
Activity (HT-29 [8]): 1.51%
Activity (HT-29 [9]): 2.32%
Activity (HT-29 [10]): 1.06%
Activity (HT-29 [11]): 1.71%
Activity (HT-29 [12]): 2.1%
Activity (HT-29 [13]): 9.54%
Activity (HT-29 [14]): 5.39%
inhibition in vivo at 100 mg/kg (LoVo [17]): 72.8%
Activity [18]: Non-Toxic
Activity [19]: Non-Toxic
